Data reported in PMC12598851, “Exploiting Avidity Effects for the Discovery of Low Affinity Protein-Binding Fragments” (Journal of Medicinal Chemistry, 2025).
“Also recorded” adds a separate entry of the source.

Legend:
Streptavidin (SA) = target: T1, Streptavidin (SA) (Streptomyces avidinii, UniProt P22629); assay: SPR, soluble compound binding to immobilized streptavidin; settings: soluble mini-PEG attached compound, immobilized SA; read-out: KD (SPR)
T1 construct: purchased
Protocol: The SPR binding affinity testing was conducted using the BIAcore 1K system (Cytiva) with BIAcore Insight Control Software. Streptavidin (50 μg/mL in 10 mM pH 5.0 NaOAc) was immobilized on a CM5 sensor chip (Cytiva) via amide coupling, using HBS-EP+ (10 mM HEPES, 150 mM NaCl, 3 mM EDTA, and 0.05% v/v Surfactant P20) as the immobilization buffer. Approximately 1000 RU of immobilization was achieved. Testing compounds were evaluated using the multiple-cycle kinetic/affinity method in PBS-P+ running buffer (20 mM phosphate buffer, 2.7 mM KCl, 137 mM NaCl, and 0.05% Surfactant P20), with a 200 s association time, 200 s dissociation time, and a flow rate of 45 μL/min. Binding affinities for the testing compounds were determined by fitting the sensor grams to both the 1:1 binding kinetics and steady-state affinity models provided in the BIAcore Insight Evaluation Software.

SA-647 [1] = target: T2, SA-647 (Streptomyces avidinii, UniProt P22629); assay: Pooled bead library screen against SA-647 by FACS with LC-MS hit identification; assay type: binding; settings: about 50-plex pooled beads, SA-647 500 nM, IP+-modified derivatives
T2 construct: purchased ThermoFisher S3235
T2 sequence (P22629 37-163 limits assumed): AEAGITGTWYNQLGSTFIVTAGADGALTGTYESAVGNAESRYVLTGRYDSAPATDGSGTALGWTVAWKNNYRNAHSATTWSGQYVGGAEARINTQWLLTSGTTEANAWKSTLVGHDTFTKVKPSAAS
Text: While the one compound per well screening format employed for the Figures and experiments works well, it will limit throughput for the analysis of much larger fragment libraries in the future. […] A photocleavable linker was placed between the fragment and the bead (Figure a). Beads displaying compounds 2, 3, and the oxazole analog of compound 2 were also constructed with the same architecture. Beads displaying all of these compounds were then mixed together in a single Mobicol tube (approximately 25,000 of each bead type).
The resin was incubated with SA-647 (500 nM, 300 μL) for 1 h at room temperature with gentle rotation.
Prior to releasing the compounds from the resin for analysis, we “clicked” a brominated imidazopyridinium unit (IP^+) to the alkyne unit in the linker of these beads via copper-catalyzed azide–alkyne cycloaddition (Figure a,c insert). This was done for three reasons. The first was to add a chromophore to molecules so that, after release from the beads, they could be detected sensitively using a UV detector on the LC trace. […]
After attachment of the IP^+ tag, the beads were washed with a 1:1 mixture of DMF and DCM and irradiated at 365 nm (4.5 × 10^3 μJ cm^–2) for 1 h in a 3:1 DCM/MeOH mixture to release the ligands from the beads. After evaporation of solvents, the eluate was redissolved in water and analyzed by LC-MS. […]

SA-647 [2] = target: T2, SA-647; assay: Dose-dependent binding of SA-647 to bead-displayed ligands by FACS (MFI); settings: SA-647 0.1 to 1000 nM
Protocol: We next asked if the bead binding assay could distinguish complexes with different affinities for SA. 10 μm TentaGel beads displaying compound 2, compound 3, the oxazole analogue of compound 2 (Figure S4), or the SA-binding macrocycle 1 shown in Figure a were exposed to different concentrations of SA-647 ranging from 0.1 to 1000 nM. After washing, the intensity of fluorescence retained on the beads was measured using a flow cytometer, and the results were plotted as the mean fluorescence intensity (MFI) on the beads vs the protein concentration. […] Macrocycle 1, which binds SA with a K D of about 600 nM in solution (more than 1000 times more tightly than compound 2), binds SA-647 on resin at far lower concentrations than does compound 2.

[3] = system: monomeric streptavidin (mSA-647); assay: Bead pull-down with monomeric streptavidin; assay type: binding; settings: mSA-647 500 nM, 1 h, PBST, room temperature
Protocol: To investigate this, compound 2-displaying, compound 3-displaying, or blank (acetylated) beads were incubated with tetrameric SA-647 or iFluor647-conjugated monomeric streptavidin (mSA-647). Biotin-displaying beads (Figure S3) were also included in this experiment as a high-affinity comparator. […] No binding of either protein to compound 3-displaying beads was observed.
3 Stable binding of tetrameric SA to beads displaying compound 2 is highly dependent on avidity. […] Each compound was represented by 1 million 10 μm TentaGel beads, with 250,000 beads used per technical replicate. (b) Effect of ligand functionalization density on compound binding. Beads were functionalized with compound 2, compound 3, or biotin at varying surface densities (100% to 5%) and incubated with SA-647 (500 nM) for 1 h in PBST at room temperature as previously, before recording the fluorescence intensity.
General notes: • At each step, contents were mixed by pipetting up and down 3–5 times. • All steps following the addition of SA-647 were conducted in the dark. • SA-647 and mSA-647 were purchased from commercial sources; (SA-647: ThermoFisher cat#S3235, mSA-647: Millipore SAE178).

T1 sequence (P22629 25-183, species assumed): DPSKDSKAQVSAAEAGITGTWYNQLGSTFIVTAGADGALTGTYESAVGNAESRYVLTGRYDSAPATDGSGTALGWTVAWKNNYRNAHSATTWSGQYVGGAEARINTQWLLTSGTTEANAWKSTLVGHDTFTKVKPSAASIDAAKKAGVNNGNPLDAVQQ

CC(=O)N(Cc1cccnc1)Cc1nc(C(=O)N(C)CC(=O)NCCOCCOCC(=O)NCC(N)=O)cs1 [Compound 2]
Kd (Streptavidin (SA)): 706 µM | recovery in sorted hit pool (LC-MS peak) (SA-647 [1]): major peak | dose-dependent binding of SA-647 (MFI by flow cytometer) (SA-647 [2]): dose-dependent binding | binding of mSA-647 to bead-displayed ligand [3]: did not retain detectable levels; also recorded: not observed
